The record followed here is ChEMBL document CHEMBL5104209 (RSC Med Chem, 2022).

Active and inactive are the calls of the source. The rule behind the calls is not given here.

For assay [1], the species on record is Homo sapiens. The assay can be described thus: Binding affinity to human His-tagged PAK4 (300 to 591 residues) L301A mutant expressed in Escherichia coli BL21 (DE3)pLysS in presence of staurosporine by ligand observed NMR competitive assay.
A short description of assay [2]: Binding affinity to human His-tagged PAK4 (300 to 591 residues) L301A mutant expressed in Escherichia coli BL21 (DE3)pLysS by surface plasmon resonance assay.

The Kd is the free concentration of one partner at which half of the binding sites on the other are occupied at equilibrium, for simple one-to-one binding. The low end stands for a tighter complex, the high end for a looser complex.

Consider `CNC(=O)c1cnn2ccc(C#N)cc12`, for which the result in assay [1] was Active. Compound `Nc1cccc2ncccc12` registered a Kd in assay [2] of 510 µM.

Turning to `NS(=O)(=O)c1cccc2cnccc12`, in assay [2], the affinity, expressed as Kd, was 300 µM.

In the case of `c1c(Nc2nc(N3CCCCC3)nc3[nH]ncc23)n[nH]c1C1CC1`, the Kd in assay [2] was found to be 0.05 µM.
